By IC50 is commonly meant the concentration that gives 50% inhibition. For orientation: Kd means the concentration at which binding is half-saturated. Read a high Kd as lower affinity. As usually defined, the bioavailability is dose-corrected exposure relative to a reference, in per cent. Lower therefore signals little systemic uptake. In general, half-life refers to the time needed for the level to fall by half in the phase considered. A high value points to slow loss. By inhibition in vivo is commonly meant the share of the control response that was lost under treatment.

Data set [1] addresses Mitogen-activated protein kinase 10 (Rattus norvegicus, UniProt P49187). As to the kind of experiment: Inhibition of JNK3-mediated c-jun phosphorylation in rat INS1 cells. It counts as cell-based.
The target in a further data set is MAP kinase p38 (Homo sapiens, UniProt O15264+Q15759+Q16539+P53778). As to the kind of experiment: Inhibition of p38 (unknown origin). Type of data set: protein assay.
Data set [2] concerns the target Casein kinase I isoform delta (Homo sapiens, UniProt P48730). Description: Inhibition of CK1delta (unknown origin) by KINOMEScan assay.
Data set [3] deals with Phosphatidylinositol 4,5-bisphosphate 3-kinase catalytic subunit gamma isoform (Homo sapiens, UniProt P48736). Description: Inhibition of PI3Kgamma (unknown origin) by KINOMEScan assay.
Data set [4] has as its target T1, Mitogen-activated protein kinase 9 (Homo sapiens, UniProt P45984). As to the kind of experiment: Inhibition of JNK2 (unknown origin).
Data set [5] concerns the target T2, Mitogen-activated protein kinase 8 (Homo sapiens, UniProt P45983). As to the kind of experiment: Inhibition of JNK1 (unknown origin).
For data set [6], the target named is MAP kinase-interacting serine/threonine-protein kinase 2 (Homo sapiens, UniProt Q9HBH9). As to the kind of experiment: Inhibition of MKNK2 (unknown origin) by KINOMEScan assay.
The target in data set [7] is T3, Mitogen-activated protein kinase 10 (Homo sapiens, UniProt P53779). As to the kind of experiment: Inhibition of JNK3 (unknown origin) by time-resolved fluorescence assay.
Data set [8] addresses T2, Mitogen-activated protein kinase 8. As to the kind of experiment: Inhibition of JNK1 (unknown origin) by time-resolved fluorescence assay.
The nature of data set [9]: Oral bioavailability in rat. Type of data set: ADME, organism-based. Particulars: in vivo.
Data set [10] is filed under the species Rattus norvegicus. As to the kind of experiment: Ratio of drug level brain to plasma in rat. It counts as ADME, organism-based.
Data set [11] concerns the target T2, Mitogen-activated protein kinase 8. Description: Inhibition of JNK1 (unknown origin) by JIP-FP displacement assay.
Data set [12] deals with Leucine-rich repeat serine/threonine-protein kinase 2 (Homo sapiens, UniProt Q5S007, G2019S). Description: Inhibition of LRRK2 G2019S mutant (unknown origin).
For data set [13], the target named is T3, Mitogen-activated protein kinase 10. Description: Inhibition of JNK3 (unknown origin) by JIP-FP displacement assay.
Data set [14] deals with T1, Mitogen-activated protein kinase 9. Description: Inhibition of JNK2 (unknown origin) by JIP-FP displacement assay.
Data set [15] can be described thus: Oral bioavailability in rat at 2 mg/kg. It counts as ADME, organism-based. Particulars: in vivo.
Data set [16] can be described thus: Clearance in rat at 1 mg/kg, iv and 2 mg/kg, po. As to conditions: in vivo. Type of data set: ADME, organism-based.
The nature of data set [17]: Half life in rat at 1 mg/kg, iv and 2 mg/kg, po. It counts as ADME, organism-based. Particulars: in vivo.
The target in data set [18] is T1, Mitogen-activated protein kinase 9. Description: Inhibition of JNK2 (unknown origin) by time-resolved fluorescence assay.
The target in data set [19] is Platelet-derived growth factor receptor beta (Homo sapiens, UniProt P09619). As to the kind of experiment: Inhibition of PDGFRbeta (unknown origin).
The target of a further data set is Cytochrome P450 3A4 (Homo sapiens, UniProt P08684). As to the kind of experiment: Inhibition of CYP3A4 (unknown origin). It counts as ADME.
A further data set deals with Cytochrome P450 2C9 (Homo sapiens, UniProt P11712). Description: Inhibition of CYP2C9 (unknown origin). It counts as ADME.
The target in a further data set is Cytochrome P450 2C8 (Homo sapiens, UniProt P10632). Description: Inhibition of CYP2C8 (unknown origin). It counts as ADME.
Data set [20] concerns Rattus norvegicus. As to the kind of experiment: Protective activity in rat model of myocardial ischemia-reperfusion injury assessed as reduction in infarct volume at 5 mg/kg. Type of data set: functional.
Another data set concerns the target Cytochrome P450 2D6 (Homo sapiens, UniProt P10635). Description: Inhibition of CYP2D6 (unknown origin). Type of data set: ADME.
The target in the next data set is Cytochrome P450 2E1 (Homo sapiens, UniProt P05181). Description: Inhibition of CYP2E1 (unknown origin). It counts as ADME.
The target in a further data set is Cytochrome P450 1A2 (Homo sapiens, UniProt P05177). As to the kind of experiment: Inhibition of CYP1A2 (unknown origin). It counts as ADME.
Data set [21] deals with Mast/stem cell growth factor receptor Kit (Homo sapiens, UniProt P10721). As to the kind of experiment: Inhibition of KIT (unknown origin).
Another data set has as its target Cytochrome P450 2B6 (Homo sapiens, UniProt P20813). As to the kind of experiment: Inhibition of CYP2B6 (unknown origin). Type of data set: ADME.
The species entered for data set [22] is Rattus norvegicus. Description: Neuroprotective effect against D-amphetamine-induced circling in rats assessed as reduction in behavioral deficits. It counts as functional.
For another data set, the target named is Cytochrome P450 2C19 (Homo sapiens, UniProt P33261). As to the kind of experiment: Inhibition of CYP2C19 (unknown origin). Type of data set: ADME.
A short description of data set [23]: Neuroprotective effect against MPP+-induced cell death in primary cultures of mouse mesencephalic dopaminergic neurons […] single dose after 8 hrs. Type of data set: functional.
Another data set has as its target Cytochrome P450 2A6 (Homo sapiens, UniProt P11509). As to the kind of experiment: Inhibition of CYP2A6 (unknown origin). Type of data set: ADME.
Data set [24] deals with Non-receptor tyrosine-protein kinase TYK2 (Homo sapiens, UniProt P29597). Description: Inhibition of TYK2 (unknown origin).
Data set [25] deals with Mast/stem cell growth factor receptor Kit (Homo sapiens, UniProt P10721, V559D). Description: Inhibition of KIT V559D (unknown origin).
The target of data set [26] is T3, Mitogen-activated protein kinase 10. Description: Inhibition of JNK3-mediated c-jun phosphorylation in human A375 cells after 1 hr incubation. It counts as cell-based, A-375.
Data set [27] addresses T2, Mitogen-activated protein kinase 8. Description: Inhibition of JNK1 (unknown origin) after 1 hr incubation.
The target of data set [28] is T3, Mitogen-activated protein kinase 10. As to the kind of experiment: Inhibition of JNK3-mediated c-jun phosphorylation in human HeLa cells after 1 hr incubation. It counts as cell-based.

Casein kinase I isoform delta, sequence (P48730 whole entry, canonical isoform): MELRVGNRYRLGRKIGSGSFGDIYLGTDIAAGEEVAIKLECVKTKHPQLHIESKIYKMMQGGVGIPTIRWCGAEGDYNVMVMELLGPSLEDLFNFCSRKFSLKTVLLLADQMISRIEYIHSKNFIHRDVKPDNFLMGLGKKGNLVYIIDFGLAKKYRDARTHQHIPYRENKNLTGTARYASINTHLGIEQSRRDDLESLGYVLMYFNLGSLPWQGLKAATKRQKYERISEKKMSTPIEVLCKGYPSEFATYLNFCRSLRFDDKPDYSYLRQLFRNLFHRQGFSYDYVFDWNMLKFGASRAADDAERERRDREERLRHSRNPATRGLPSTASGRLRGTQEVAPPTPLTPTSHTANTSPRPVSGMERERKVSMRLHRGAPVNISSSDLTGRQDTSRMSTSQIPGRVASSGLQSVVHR
Mast/stem cell growth factor receptor Kit (Homo sapiens, UniProt P10721), sequence (P10721 whole entry): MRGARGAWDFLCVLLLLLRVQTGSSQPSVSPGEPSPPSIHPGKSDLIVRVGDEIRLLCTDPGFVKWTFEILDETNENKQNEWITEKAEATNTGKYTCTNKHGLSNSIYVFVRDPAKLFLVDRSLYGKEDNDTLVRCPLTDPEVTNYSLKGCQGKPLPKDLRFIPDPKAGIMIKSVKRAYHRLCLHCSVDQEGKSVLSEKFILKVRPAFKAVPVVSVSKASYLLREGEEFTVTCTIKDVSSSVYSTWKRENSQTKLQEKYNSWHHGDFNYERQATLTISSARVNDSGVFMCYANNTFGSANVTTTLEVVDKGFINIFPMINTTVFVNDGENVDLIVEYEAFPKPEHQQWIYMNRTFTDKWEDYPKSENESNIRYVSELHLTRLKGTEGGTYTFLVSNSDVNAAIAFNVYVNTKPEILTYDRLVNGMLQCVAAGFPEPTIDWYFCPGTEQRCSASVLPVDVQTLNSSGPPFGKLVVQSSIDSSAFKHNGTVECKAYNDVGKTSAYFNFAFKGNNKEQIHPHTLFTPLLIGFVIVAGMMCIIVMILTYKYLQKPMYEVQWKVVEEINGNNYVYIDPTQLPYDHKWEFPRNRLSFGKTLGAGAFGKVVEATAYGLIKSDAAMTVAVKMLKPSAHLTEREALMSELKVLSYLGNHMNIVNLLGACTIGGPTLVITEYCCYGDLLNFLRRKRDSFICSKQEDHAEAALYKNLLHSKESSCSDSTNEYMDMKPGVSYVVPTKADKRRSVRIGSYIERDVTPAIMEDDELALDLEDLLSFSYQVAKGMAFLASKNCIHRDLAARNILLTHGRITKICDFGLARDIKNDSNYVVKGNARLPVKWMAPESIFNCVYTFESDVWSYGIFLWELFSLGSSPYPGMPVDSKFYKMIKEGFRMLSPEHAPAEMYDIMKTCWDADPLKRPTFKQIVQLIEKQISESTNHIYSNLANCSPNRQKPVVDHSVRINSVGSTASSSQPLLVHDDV
T1 sequence (P45984 whole entry): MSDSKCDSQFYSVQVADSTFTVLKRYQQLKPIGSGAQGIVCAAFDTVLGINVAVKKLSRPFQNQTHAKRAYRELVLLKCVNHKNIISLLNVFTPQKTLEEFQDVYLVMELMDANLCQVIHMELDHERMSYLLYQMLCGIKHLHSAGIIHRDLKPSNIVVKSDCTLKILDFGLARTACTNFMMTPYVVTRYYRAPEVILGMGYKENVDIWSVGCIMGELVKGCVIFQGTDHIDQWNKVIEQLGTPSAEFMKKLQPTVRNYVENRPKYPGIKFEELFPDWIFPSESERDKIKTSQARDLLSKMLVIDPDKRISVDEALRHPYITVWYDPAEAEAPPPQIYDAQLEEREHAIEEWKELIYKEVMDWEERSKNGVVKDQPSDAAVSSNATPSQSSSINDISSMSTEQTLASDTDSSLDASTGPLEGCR
T3 sequence (P53779 whole entry): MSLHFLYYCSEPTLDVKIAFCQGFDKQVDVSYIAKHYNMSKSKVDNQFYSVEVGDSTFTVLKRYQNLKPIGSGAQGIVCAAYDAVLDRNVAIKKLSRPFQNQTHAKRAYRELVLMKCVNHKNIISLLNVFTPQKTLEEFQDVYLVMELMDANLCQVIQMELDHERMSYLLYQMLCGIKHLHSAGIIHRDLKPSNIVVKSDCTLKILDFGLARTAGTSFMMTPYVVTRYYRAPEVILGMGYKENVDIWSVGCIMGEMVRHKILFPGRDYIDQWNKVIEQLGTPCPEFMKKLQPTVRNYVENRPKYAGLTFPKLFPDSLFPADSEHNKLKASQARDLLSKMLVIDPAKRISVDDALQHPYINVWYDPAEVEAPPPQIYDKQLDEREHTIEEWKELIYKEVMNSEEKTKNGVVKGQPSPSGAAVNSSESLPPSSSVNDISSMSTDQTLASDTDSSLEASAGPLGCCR
Mitogen-activated protein kinase 10 (Rattus norvegicus, UniProt P49187), sequence (P49187 whole entry): as the sequence (P53779 whole entry) above, with Q27H, Y32S, I33V, A34V counted along it
T2 sequence (P45983 whole entry): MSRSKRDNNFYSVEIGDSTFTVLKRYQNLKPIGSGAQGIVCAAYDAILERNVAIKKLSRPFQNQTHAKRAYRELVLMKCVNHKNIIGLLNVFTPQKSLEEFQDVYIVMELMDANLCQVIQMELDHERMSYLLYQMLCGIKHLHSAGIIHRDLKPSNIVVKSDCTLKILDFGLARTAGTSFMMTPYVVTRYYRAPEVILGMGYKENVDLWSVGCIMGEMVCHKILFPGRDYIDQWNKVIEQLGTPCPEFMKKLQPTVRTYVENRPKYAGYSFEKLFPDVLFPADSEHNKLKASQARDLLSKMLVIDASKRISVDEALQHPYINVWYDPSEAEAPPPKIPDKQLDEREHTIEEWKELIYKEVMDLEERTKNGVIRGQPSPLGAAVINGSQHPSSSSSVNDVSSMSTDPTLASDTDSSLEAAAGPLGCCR
Phosphatidylinositol 4,5-bisphosphate 3-kinase catalytic subunit gamma isoform, sequence (P48736 whole entry, canonical isoform): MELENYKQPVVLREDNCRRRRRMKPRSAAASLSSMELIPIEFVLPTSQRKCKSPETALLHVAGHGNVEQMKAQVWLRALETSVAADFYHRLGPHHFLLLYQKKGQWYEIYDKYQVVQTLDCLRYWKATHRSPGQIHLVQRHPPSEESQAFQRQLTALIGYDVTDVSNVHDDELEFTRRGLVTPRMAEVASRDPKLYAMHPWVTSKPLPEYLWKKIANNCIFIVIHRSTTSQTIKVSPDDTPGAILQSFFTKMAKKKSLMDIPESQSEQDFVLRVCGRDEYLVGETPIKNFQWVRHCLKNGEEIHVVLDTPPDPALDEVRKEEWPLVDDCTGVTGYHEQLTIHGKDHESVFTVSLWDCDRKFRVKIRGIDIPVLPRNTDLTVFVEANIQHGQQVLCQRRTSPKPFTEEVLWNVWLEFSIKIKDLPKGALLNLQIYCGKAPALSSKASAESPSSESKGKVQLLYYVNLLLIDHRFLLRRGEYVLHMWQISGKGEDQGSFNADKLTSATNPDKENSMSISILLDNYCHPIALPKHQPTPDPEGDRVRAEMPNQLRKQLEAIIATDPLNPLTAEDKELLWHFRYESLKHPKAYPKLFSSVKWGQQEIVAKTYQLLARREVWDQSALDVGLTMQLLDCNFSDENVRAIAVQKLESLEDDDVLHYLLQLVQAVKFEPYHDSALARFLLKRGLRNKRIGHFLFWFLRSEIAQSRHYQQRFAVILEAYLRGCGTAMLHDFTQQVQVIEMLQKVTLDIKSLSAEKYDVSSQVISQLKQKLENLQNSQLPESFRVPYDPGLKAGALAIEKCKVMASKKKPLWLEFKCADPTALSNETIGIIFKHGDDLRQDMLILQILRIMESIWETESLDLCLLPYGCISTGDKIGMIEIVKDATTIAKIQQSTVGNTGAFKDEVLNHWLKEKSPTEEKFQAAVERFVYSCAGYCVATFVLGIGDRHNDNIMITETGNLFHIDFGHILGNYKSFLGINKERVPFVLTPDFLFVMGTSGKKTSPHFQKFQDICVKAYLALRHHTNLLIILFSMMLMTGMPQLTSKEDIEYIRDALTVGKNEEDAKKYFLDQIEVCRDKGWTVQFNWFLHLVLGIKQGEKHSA
MAP kinase-interacting serine/threonine-protein kinase 2, sequence (Q9HBH9 whole entry): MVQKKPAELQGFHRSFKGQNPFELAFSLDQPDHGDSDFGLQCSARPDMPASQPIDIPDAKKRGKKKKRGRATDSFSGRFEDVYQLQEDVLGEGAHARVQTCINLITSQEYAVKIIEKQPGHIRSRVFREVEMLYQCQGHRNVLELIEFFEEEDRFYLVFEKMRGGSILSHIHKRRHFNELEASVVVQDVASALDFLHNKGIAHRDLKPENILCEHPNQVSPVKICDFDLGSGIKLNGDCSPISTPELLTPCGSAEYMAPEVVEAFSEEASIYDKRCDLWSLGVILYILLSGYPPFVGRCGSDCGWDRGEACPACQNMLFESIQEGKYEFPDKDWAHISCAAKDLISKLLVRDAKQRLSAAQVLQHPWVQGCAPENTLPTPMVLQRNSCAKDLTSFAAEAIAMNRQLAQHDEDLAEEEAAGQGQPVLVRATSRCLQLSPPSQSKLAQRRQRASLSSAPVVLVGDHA
Cytochrome P450 2D6, sequence (P10635 whole entry): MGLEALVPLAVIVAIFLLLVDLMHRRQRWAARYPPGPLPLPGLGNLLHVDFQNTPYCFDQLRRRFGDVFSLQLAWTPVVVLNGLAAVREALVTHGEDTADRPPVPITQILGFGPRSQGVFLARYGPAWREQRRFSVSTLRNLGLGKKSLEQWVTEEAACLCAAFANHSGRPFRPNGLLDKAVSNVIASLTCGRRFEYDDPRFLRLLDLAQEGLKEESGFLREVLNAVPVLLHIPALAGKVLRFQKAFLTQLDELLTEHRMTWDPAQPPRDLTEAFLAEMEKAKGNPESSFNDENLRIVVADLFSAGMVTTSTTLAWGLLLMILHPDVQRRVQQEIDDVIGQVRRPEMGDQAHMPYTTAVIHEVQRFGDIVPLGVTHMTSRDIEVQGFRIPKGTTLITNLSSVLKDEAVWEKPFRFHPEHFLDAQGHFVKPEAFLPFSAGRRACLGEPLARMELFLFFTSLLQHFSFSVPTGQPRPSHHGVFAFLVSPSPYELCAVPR

Consider `CS(=O)(=O)Nc1ccc(-c2ccnc(Nc3ccc(-n4ccnn4)cc3)n2)cc1`, for which the IC50 is 210 nM in [1] and more than 20000 nM on MAP kinase p38.
For `O=C(O/N=C1/c2ccccc2-c2nc3ccccc3nc21)c1ccco1`, the Kd stood at 560 nM in data set [2]; 430 nM in data set [3]; 290 nM in data set [4]; 240 nM in [5]; 1200 nM in data set [6].
As to `COc1cc(N2CCOCC2)ccc1Nc1ncc(Cl)c(Nc2ccccc2C(N)=O)n1`, the IC50 amounted to 3 nM in data set [1], 0.8 nM in data set [7] and 3 nM in data set [8]. In addition, in data set [9], the bioavailability was found to be 30%. In addition, the BPR in the data set listed under Rattus norvegicus [10] was 17%.
As for `COc1ccc2c(c1)OCC(C(=O)NC(=O)N(CC(=O)NCCCCCCNC(=O)c1ccc(-c3n[nH]c4ccccc34)cc1)CC(C)C)O2` (stereo not given), the IC50 in [1] was 2800 nM; in data set [11], 109 nM; in data set [12], 99 nM; in data set [13] it was 12 nM; in [14], 336 nM.
Take `O=C(NCCN1CCN(C2CCC2)CC1)c1cccc(-n2ncc3cc(Nc4ccccc4Cl)ccc32)c1`: the IC50 is 40 nM in data set [7] and 970 nM in data set [8]. Further, the bioavailability in data set [15] was 27%. In addition, in data set [16], the clearance was 25 mL/min/kg. The compound further returned a half-life in data set [17] of 3.3 min.
Take `O/N=C1/c2ccccc2-c2nc3ccccc3nc21`: the Kd in data set [2] is 380 nM; in [3] it was 470 nM; in data set [6] it was 920 nM.
Regarding `Cn1cc(-c2ccc3cnc(Nc4ccc(-n5cnc(N6CCOCC6)n5)cc4)nc3c2)cn1`, the IC50 in data set [1] amounted to 310 nM; in [18] it was 90 nM.
Consider `Cc1ccc(-c2ncn(-c3ccc(Nc4nccc(-c5cccc(N6CCOCC6)c5)n4)cc3)n2)cn1`, for which the dissociation constant Kd was less than 1000 nM in data set [19], more than 20000 nM in data set [21], less than 1000 nM in [24] and less than 1000 nM in [25]. The IC50 was more than 50000 nM at Cytochrome P450 3A4; more than 50000 nM on Cytochrome P450 2C9; 216 nM in data set [1]; more than 50000 nM against Cytochrome P450 2C8; more than 20000 nM on MAP kinase p38; 159 nM in [7]. Also, the IC50 against Cytochrome P450 2D6 was more than 50000 nM; at Cytochrome P450 2E1 it was more than 50000 nM; against Cytochrome P450 1A2, more than 50000 nM; against Cytochrome P450 2B6, more than 50000 nM; in [18] it was 283 nM; in data set [8] it was 67 nM. The IC50 against Cytochrome P450 2C19 and against Cytochrome P450 2A6 was more than 50000 nM in each case. Further, in the data set on Rattus norvegicus [20], the inhibition in vivo at 5 mg/kg was 34%. Besides, the “inhibition (INH)” value in the data set filed under Rattus norvegicus [22] turned out to be 90%. This compound returned an Activity in data set [23] of more than 90%.
Take `CN(C)C/C=C/C(=O)Nc1ccc(C(=O)Nc2cccc(Nc3nccc(-c4cccnc4)n3)c2)cc1`: half-maximal inhibition in data set [26] (IC50) was put at 2400 nM.
For the compound `COc1ccc(C(=O)O/N=C2/c3ccccc3-c3nc4ccccc4nc32)cc1OC`, the Kd was found to be 5700 nM in data set [2]; 12000 nM in data set [3]; 280 nM in [4]; 270 nM in [5]; 10000 nM in data set [6].
As for `COc1ccc(CC(=O)Nc2cc3cc(-c4cnn(C)c4)ccc3cn2)cc1`, in data set [8], the IC50 amounted to 0.8 nM.
For `CN(C)c1ccc(-c2cnc3[nH]cc(-c4cn[nH]c4)c3c2)cc1`, the IC50 in [7] stood at 32 nM; in [18] it was 59 nM; in data set [8], 101 nM.
`COc1cc(NC(=O)c2cccc(-n3cc(NC(=O)Nc4cccc(C)c4)cn3)c2)cc(OC)c1OC`: the values for the IC50 (in [1]; on MAP kinase p38; in [8]) were 1300 nM, more than 20000 nM and 17 nM, respectively. Moreover, in data set [21], the Kd is more than 20000 nM.
As to `NC(=O)c1ccccc1Nc1nc(Nc2ccc(N3CCCC3=O)cc2)ncc1Cl`, inhibition in [8] was half-maximal at 0.24 nM (IC50).
Take `Cn1cc(-c2c[nH]c3ncc([C@H]4CC[C@H](N5CCOCC5)CC4)cc23)cn1`: the figures for the IC50 in data set [7], in data set [18] and in data set [8] were 85 nM, 123 nM and 74 nM, respectively.
In the case of `Cn1cc(-c2c[nH]c3ncc([C@H]4CC[C@H](N5CCCOCC5)CC4)cc23)cn1`, the values for the IC50 in data set [18] and in data set [8] were 339 nM and 166 nM, respectively.
In turn, `CN(C)C/C=C/C(=O)Nc1cccc(C(=O)Nc2ccc(Nc3nccc(-c4cccnc4)n3)cc2)c1` came in with an IC50 in data set [27] of 1.5 nM.
Compound `O=C(NCCN1CCOCC1)c1ccnc(-n2ncc3cc(Nc4ccccc4Cl)ccc32)c1` displayed a Kd in [21] of less than 1000 nM.
As for `COc1cc(NC(=O)c2cccc(-n3cc(NC(=O)Nc4ccccc4)cn3)c2)cc(OC)c1OC`, the results for the IC50 (in [1]; against MAP kinase p38) were 1200 nM and 3700 nM, respectively.
For the compound `Fc1cc(-c2cc[nH]/c(=N/c3ccc(-n4cnc(N5CCOCC5)n4)cc3)n2)cc(N2CCOCC2)c1`, the IC50 in data set [1] is 54 nM; against MAP kinase p38, more than 20000 nM; in [18], 99 nM.
With `CN(C)C/C=C/C(=O)Nc1cccc(C(=O)Nc2ccc(Nc3nccc(-c4c(-c5ccccc5)nn5ccccc45)n3)cc2)c1`, the IC50 amounted to 9 nM in data set [26], 1.3 nM in [27] and 48 nM in [28].
As for `NC(=O)c1ccccc1Nc1nc(Nc2ccc(N3CCOCC3)cc2)ncc1Cl`, the IC50 was 0.3 nM in data set [7] and 1 nM in [8].

The record behind these values is ChEMBL document CHEMBL3393060, “Inhibitors of c-Jun N-terminal kinases: an update” (J Med Chem, 2015).
